A word on the IC50: it is the midpoint of a concentration-inhibition curve. Broadly, the inhibition is the drop in the measured response relative to a control, in per cent.

The conditions of test [1]: spinal nerve ligation animal model; cited from earlier work.
The next test has as its target T1, α1G T-type Ca2+ currents (Homo sapiens, UniProt O43497).
T1 construct: expressed in transfected cells; host or cells: HEK293
The test is described as follows: Electrophysiological whole cell patch clamp method in HEK293 cell. Format: cell-based. Particulars: peak current, step to −30 mV, read-out: Activity (IC50) against T-type calcium channel. How it is done: Meanwhile, the antagonistic activity of the novel compound of Formula (1) herein against T-type calcium channel was tested as described below. The synthesized compounds were tested for the activity against T-type calcium channel with FDSS6000. […] For the recordings of α1G T-type Ca^2+ currents, the standard whole-cell patch-clamp method was utilized as previously described. Briefly, borosilicate glass electrodes with a resistance of 3˜4 MΩ were pulled and filled with the internal solution contained (in mM): 130 KCl, 11 EGTA, 5 Mg-ATP, and 10 HEPES (pH 7.4). […] The molar concentrations of test compounds required to produce 50% inhibition of peak currents (IC50) were determined from fitting raw data into dose-response curves. The current recordings were obtained using an EPC-9 amplifier and Pulse/Pulsefit software program (HEKA, Germany).
(Patch clamp records ionic current or voltage across a cell membrane.)

For a further test, the target named is T2, α1G T-type Ca2+ channels (Homo sapiens, UniProt O43497).
T2 construct: expressed in transfected cells; host or cells: HEK293 cells stably expressing α1G and Kir2.1
As to the kind of experiment: Screening of activity against T-type calcium channel with FDSS6000 (fluorescence, KCl-induced [Ca2+]i increase). Format: cell-based. As to conditions: HEK293 cells expressing α1G and Kir2.1, read-out: Inhibitory effect (%) of T-type calcium channel, Inhibition (%); for inhibition at 10 µM: NA: Not Active. The procedure, abridged: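 HEK293 cells stably expressing α1G plus Kir2.1 were loaded with 5 μM fluo3/AM for 60 min at room temperature in HEPES buffer pH 7.4. In buffer with 10 mM CaCl2, cells were pretreated with compound, then depolarized with 70 mM KCl. The rise in [Ca2+]i was measured by fluorescence […].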

T2 sequence (O43497 whole entry): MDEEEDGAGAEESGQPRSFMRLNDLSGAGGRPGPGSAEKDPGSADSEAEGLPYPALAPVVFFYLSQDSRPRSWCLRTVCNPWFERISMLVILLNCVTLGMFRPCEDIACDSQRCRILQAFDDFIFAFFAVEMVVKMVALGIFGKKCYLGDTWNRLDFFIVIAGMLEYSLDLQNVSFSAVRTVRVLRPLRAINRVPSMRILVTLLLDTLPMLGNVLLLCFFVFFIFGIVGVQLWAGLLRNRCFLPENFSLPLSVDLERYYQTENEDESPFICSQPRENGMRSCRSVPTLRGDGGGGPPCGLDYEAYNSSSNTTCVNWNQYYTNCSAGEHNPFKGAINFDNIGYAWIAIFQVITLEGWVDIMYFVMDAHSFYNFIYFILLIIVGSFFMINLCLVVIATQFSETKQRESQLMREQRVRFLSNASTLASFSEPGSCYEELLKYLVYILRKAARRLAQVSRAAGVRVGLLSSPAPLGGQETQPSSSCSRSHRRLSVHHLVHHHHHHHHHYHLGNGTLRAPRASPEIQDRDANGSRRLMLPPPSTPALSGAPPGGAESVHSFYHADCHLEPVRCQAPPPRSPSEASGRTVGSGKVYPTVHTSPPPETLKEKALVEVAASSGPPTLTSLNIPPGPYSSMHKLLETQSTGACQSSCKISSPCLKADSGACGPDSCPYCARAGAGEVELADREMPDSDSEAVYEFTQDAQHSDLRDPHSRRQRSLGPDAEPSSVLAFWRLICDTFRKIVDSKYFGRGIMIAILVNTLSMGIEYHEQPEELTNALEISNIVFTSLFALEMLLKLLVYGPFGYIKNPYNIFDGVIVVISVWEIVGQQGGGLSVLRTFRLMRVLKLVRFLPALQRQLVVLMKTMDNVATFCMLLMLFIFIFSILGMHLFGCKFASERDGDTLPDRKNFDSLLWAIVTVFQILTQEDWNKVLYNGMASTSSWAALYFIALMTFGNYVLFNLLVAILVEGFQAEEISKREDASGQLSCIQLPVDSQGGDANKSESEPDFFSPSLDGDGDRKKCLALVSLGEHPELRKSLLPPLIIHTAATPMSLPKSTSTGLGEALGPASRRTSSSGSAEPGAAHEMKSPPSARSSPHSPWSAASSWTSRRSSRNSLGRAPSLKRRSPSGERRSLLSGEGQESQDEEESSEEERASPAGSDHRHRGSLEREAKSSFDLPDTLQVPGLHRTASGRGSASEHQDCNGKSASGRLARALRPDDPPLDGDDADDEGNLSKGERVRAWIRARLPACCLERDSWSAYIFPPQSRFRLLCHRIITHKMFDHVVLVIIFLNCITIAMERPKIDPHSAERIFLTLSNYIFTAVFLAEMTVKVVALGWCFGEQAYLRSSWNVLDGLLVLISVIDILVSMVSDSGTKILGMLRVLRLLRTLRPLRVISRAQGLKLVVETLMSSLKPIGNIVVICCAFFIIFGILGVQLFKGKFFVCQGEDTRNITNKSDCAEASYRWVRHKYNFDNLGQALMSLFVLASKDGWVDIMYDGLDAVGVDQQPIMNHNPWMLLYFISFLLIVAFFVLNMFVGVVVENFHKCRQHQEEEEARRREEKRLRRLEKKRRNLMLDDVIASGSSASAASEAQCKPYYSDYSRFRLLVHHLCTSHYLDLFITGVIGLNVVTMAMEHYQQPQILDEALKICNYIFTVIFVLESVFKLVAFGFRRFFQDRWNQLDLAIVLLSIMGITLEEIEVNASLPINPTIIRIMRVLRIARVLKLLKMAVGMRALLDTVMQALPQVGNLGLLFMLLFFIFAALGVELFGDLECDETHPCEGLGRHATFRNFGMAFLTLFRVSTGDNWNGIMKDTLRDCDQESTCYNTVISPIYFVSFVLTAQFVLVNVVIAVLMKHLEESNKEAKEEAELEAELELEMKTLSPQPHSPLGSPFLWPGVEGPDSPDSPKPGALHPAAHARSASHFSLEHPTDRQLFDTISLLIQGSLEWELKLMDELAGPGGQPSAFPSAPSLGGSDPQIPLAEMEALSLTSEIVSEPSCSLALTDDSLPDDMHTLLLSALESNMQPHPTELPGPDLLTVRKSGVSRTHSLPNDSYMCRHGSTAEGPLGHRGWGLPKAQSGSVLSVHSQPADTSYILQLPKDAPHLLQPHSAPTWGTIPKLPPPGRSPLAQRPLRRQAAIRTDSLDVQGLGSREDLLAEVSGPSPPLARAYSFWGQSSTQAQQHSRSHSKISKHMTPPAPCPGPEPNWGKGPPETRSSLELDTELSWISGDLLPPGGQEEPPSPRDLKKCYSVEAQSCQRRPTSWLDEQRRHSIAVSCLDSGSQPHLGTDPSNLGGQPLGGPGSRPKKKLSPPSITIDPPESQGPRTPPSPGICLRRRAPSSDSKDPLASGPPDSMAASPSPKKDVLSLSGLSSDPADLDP
T1 sequence (O43497 whole entry): as above

As for `CCC1(C)CC(=O)NC1=O` (stereo not drawn) [Ethosuximide], in test [1], the “effect on mechanic and thermal induction (neurogenic pain)” value is “dosage-dependent reversed mechanic and thermal induction”. On to `O=C(NCCN1CCCCC1)c1ccc2c(c1)C(=O)N(Cc1cccc(F)c1)C2=O` [Compound 61, 1-(2-{[2-(3-fluoro-benzyl)-1,3-dioxo-2,3-dihydro-1H-isoindol-5-carbonyl]-amino}-ethyl)-piperidinium chloride], for which the IC50 at α1G T-type Ca2+ currents turned out to be 8.52 ± 0.75 µM. For the same compound, at α1G T-type Ca2+ channels, the inhibition at 100 µM is 85.5%. On the same counts, the results for `Cc1cccc(CN2C(=O)c3ccc(C(=O)NCCN4CCCCC4)cc3C2=O)c1` [Compound 99, 1-(2-{[2-(3-methyl-benzyl)-1,3-dioxo-2,3-dihydro-1H-isoindol-5-carbonyl]-amino}-ethyl)-piperidinium chloride] are 1.93 ± 0.23 µM and 89.7%. As to `Cc1ccccc1CN1C(=O)c2ccc(C(=O)NCCCN3CCCCC3C)cc2C1=O` (stereo not drawn) [Compound 94, 2-methyl-1-(3-{[2-(2-methyl-benzyl)-1,3-dioxo-2,3-dihydro-1H-isoindol-5-carbonyl]-amino}-propyl)-piperidinium chloride], the IC50 on α1G T-type Ca2+ currents was 2.07 ± 0.45 µM. Further, the inhibition at 100 µM at α1G T-type Ca2+ channels stood at 84.8%. With `CC1CCCCN1CCCNC(=O)c1ccc2c(c1)C(=O)N(Cc1ccc(Cl)cc1)C2=O` (stereo not drawn) [Compound 88, 1-(3-{[2-(4-chloro-benzyl)-1,3-dioxo-2,3-dihydro-1H-isoindol-5-carbonyl]-amino}-propyl)-2-methyl-piperidinium chloride], at α1G T-type Ca2+ currents, the IC50 stood at 0.93 ± 0.06 µM. The inhibition at 10 µM on α1G T-type Ca2+ channels was 46.6%. As for `CC1CCCCN1CCCNC(=O)c1ccc2c(c1)C(=O)N(Cc1ccccc1Cl)C2=O` (stereo not drawn) [Compound 76, 1-(3-{[2-(2-chloro-benzyl)-1,3-dioxo-2,3-dihydro-1H-isoindol-5-carbonyl]-amino}-propyl)-2-methyl-piperidinium chloride], the IC50 at α1G T-type Ca2+ currents worked out at 1.52 ± 0.19 µM. Further, at α1G T-type Ca2+ channels, the inhibition at 10 µM turned out to be 50.9%. As for `Cc1ccccc1CN1C(=O)c2ccc(C(=O)NCCN3CCCCC3)cc2C1=O` [Compound 93, 1-(2-{[2-(2-methyl-benzyl)-1,3-dioxo-2,3-dihydro-1H-isoindol-5-carbonyl]-amino}-ethyl)-piperidinium chloride], the IC50 on α1G T-type Ca2+ currents came out at 8.28 ± 2.95 µM. For the same compound, on α1G T-type Ca2+ channels, the inhibition at 100 µM stood at 90.4%. As for `Cc1cccc(CN2C(=O)c3ccc(C(=O)NCCCN4CCCCC4C)cc3C2=O)c1` (stereo not drawn) [Compound 100, 2-methyl-1-(3-{[2-(3-methyl-benzyl)-1,3-dioxo-2,3-dihydro-1H-isoindol-5-carbonyl]-amino}-propyl)-piperidinium chloride], on α1G T-type Ca2+ currents, the IC50 stood at 1.84 ± 0.21 µM. Further, the inhibition at 10 µM at α1G T-type Ca2+ channels is 48.4%. As to `CC1CCCCN1CCCNC(=O)c1ccc2c(c1)C(=O)N(Cc1ccc(F)cc1)C2=O` (stereo not drawn) [Compound 69, 1-(3-{[2-(4-fluoro-benzyl)-1,3-dioxo-2,3-dihydro-1H-isoindol-5-carbonyl]-amino}-propyl)-2-methyl-piperidinium chloride], at α1G T-type Ca2+ currents, the IC50 came out at 2.03 ± 0.12 µM. Also, at α1G T-type Ca2+ channels, the inhibition at 100 µM turned out to be 84.7%.

As for `O=C(NCCN1CCCCC1)c1ccc2c(c1)C(=O)N(Cc1ccc(Cl)cc1)C2=O` [Compound 87, 1-(2-{[2-(4-chloro-benzyl)-1,3-dioxo-2,3-dihydro-1H-isoindol-5-carbonyl]-amino}-ethyl)-piperidinium chloride], the IC50 on α1G T-type Ca2+ currents turned out to be 0.96 ± 0.07 µM. On α1G T-type Ca2+ channels, the inhibition at 10 µM turned out to be 47.2%.

As to `CC1CCCCN1CCCNC(=O)c1ccc2c(c1)C(=O)N(Cc1cccc(Cl)c1)C2=O` (stereo not drawn) [Compound 82, 1-(3-{[2-(3-chloro-benzyl)-1,3-dioxo-2,3-dihydro-1H-isoindol-5-carbonyl]-amino}-propyl)-2-methyl-piperidinium chloride], the concentration for half-maximal inhibition (IC50) at α1G T-type Ca2+ currents came to 1.81 ± 0.46 µM. Further, the inhibition at 10 µM on α1G T-type Ca2+ channels is 46.2%.

Take `COCC(=O)O[C@]1(CCN(C)CCCc2nc3ccccc3[nH]2)CCc2cc(F)ccc2[C@@H]1C(C)C` [Mibefradil, reference compound]: the inhibition at 10 µM on α1G T-type Ca2+ channels worked out at 75.1%. The “effect on mechanic and thermal induction (neurogenic pain)” value in test [1] is “dosage-dependent reversed mechanic and thermal induction”. Consider `Cc1ccc(CN2C(=O)c3ccc(C(=O)NCCCN4CCCCC4)cc3C2=O)cc1` [Compound 106, 1-(3-{[2-(4-methyl-benzyl)-1,3-dioxo-2,3-dihydro-1H-isoindol-5-carbonyl]-amino}-propyl)-piperidinium chloride], for which the inhibition at 10 µM at α1G T-type Ca2+ channels is 40.1%.

Values taken from patent US7319098B2, “1,3-dioxoisoindole derivatives having selective antagonism of T-type calcium channel” (Korea Institute of Science and Technology, priority 2006, dated 2008).
